In patent publication US20240108610A1, “RECTAL ADMINISTRATION OF ROFLUMILAST FOR THE TREATMENT OF CROHN'S DISEASE” (King Abdulaziz University, priority 2022, published 2024):

Key:
[1] = oral; cited from earlier work
[2] = oral; cited from earlier work; remark: listed apart in the source
[3] = system: ovalbumin-induced asthmatic mice; conditions: inhaled; cited from earlier work
[4] = system: dextran sulphate sodium (DSS)-induced colitis; conditions: oral, 1 or 5 mg·kg−1·day−1, mice; cited from earlier work
GSH = assay: Colonic GSH in colonic tissue homogenates, TNBS-induced colitis; type: in vivo, rat; conditions: oral, once daily for 15 days; SS 500 mg/kg, OR 5 mg/kg; means±SE, n = 8
Description: Chronic colitis was induced by weekly rectal injections of increasing doses of TNBS over 6 weeks (15, 30, 45, 60, 60, and 60 mg from day 0 to day 35), as previously described (4,12). Briefly, after food deprivation for 24 h, rats were anesthetized with an intraperitoneal injection of 1% isoflurane. TNBS was dissolved in ethanol (50%) and instilled into the colon using a cannula (0.25 mL), and then the rats were held upside down for 3 min to prevent escape of the intracolonic TNBS. Roflumilast was dissolved in dimethyl sulfoxide and diluted in 0.5% carboxymethyl cellulose sodium to a final concentration of 5.0 mg·kg^−1·day^−1 as previously described (13). Five groups of rats (n=8) were established: normal control (NC group), TNBS-treated (TNBS group, positive control), and three TNBS-treated groups that received oral sulfasalazine (SS group, 500 mg/kg) (14), oral roflumilast (by gastric gavage, OR group, 5 mg/kg), or rectal roflumilast (RR group, 5 mg/kg). […] At the end of the treatment period, the rats were evaluated with the colitis activity score. […] At the end of the 15-day treatment period, the rats were sacrificed by cervical dislocation, and the colon was isolated, cleaned of feces, and measured for weight and length. Colonic myeloperoxidase (MPO) activity and glutathione (GSH) and malonaldehyde (MDA) levels were measured. […]

Row | Structure (SMILES) | bioavailability [1] [%] | side effects [2] | inflammation and histopathological changes [3] | numbers of neutrophils, eosinophils, and macrophages in the bronchoalveolar lavage fluid [3] | Colonic length [4] | colonic TNF-α production [4] | disease clinical score (weight loss, stool consistency, and hemorrhage) [4] | histological score [4] | colonic level of GSH (GSH)
1 | O=C(Nc1c(Cl)cncc1Cl)c1ccc(OC(F)F)c(OCC2CC2)c1 [roflumilast] | ~80 | weight loss, headache, nausea, emesis, and diarrhea | substantially improved | decreased | dose-dependently improved | dose-dependently improved | dose-dependently improved | not improved | –
2 | O=C(O)c1cc(/N=N/c2ccc(S(=O)(=O)Nc3ccccn3)cc2)ccc1O [sulfasalazine] | – | – | – | – | – | – | – | – | 14.73 ± 0.49^h, i mmol/mg
